In publication PMC2584942, “Phase I dose escalation study of telatinib (BAY 57-9352) in patients with advanced solid tumours” (British Journal of Cancer, 2008):
“Also recorded” adds a separate entry of the source.

Experiments:
[1] = system: PDGFR-β; parameters: method as in printed; conditions: biochemical assay; background statement, ref not given; cited from earlier work
[2] = system: refractory advanced solid tumours; assay: Tumour response according to RECIST; assay type: in vivo, human; conditions: number of patients
Protocol: (§1) History, physical examinations, haematological and biochemical laboratory evaluations were performed at screening, on days 1, 7 and 14 of cycle 1 and on day 1 of subsequent cycles. Baseline objective tumour measurements were performed within 4 weeks prior to study treatment. Lesions at all disease sites were categorised as either measurable or nonmeasurable. Indicator lesions were selected and monitored throughout the study by the same assessor and using the same technique. Tumour response was evaluated according to the RECIST ([Therasse et al, 2000]).

[3] = system: major human CYP isoforms; parameters: method as in printed; conditions: at therapeutically relevant concentrations; background statement, ref not given; cited from earlier work
[4] = system: MDA-MB-231 breast carcinoma; parameters: method as in printed; conditions: MDA-MB-231 breast carcinoma model; background statement, ref not given; cited from earlier work
[5] = Phase I dose escalation: study drug-related adverse events (NCI CTC v2.0), DLT, MTD; assay type: in vivo
Protocol: Administration of telatinib was continued until an unacceptable toxicity, disease progression or death occurred or the consent was withdrawn. At start of the study, only a solution formulation was available. The formulation as tablet was introduced into the study after first pharmacokinetic results became available. Based on pharmacokinetic data, OD, two times daily (BID), and three times daily schedules were evaluated.
Three patients were initially enroled at each dose level. […] If any patient experienced a DLT, three additional patients were enroled at that dose level. If at least two out of six patients experienced a DLT, dose escalation had to be stopped and that dose was to be declared the toxic dose. The next lower dose level was defined as the MTD. […] In the course of the study the protocol was amended so that the onset of CTC grade 3 hypertension was only considered to be a DLT if the hypertension turned out to be refractory to standard antihypertensive treatment.
Adverse events were assessed at the end of each cycle and graded according to the National Cancer Institute Common Toxicity Criteria (NCI CTC), v2.0 ([Trotti et al, 2000]).
as §1

[6] = primary tumour site Colorectal, N=25
[7] = primary tumour site Other, N=17
[8] = primary tumour site Pancreatic, N=4

CNC(=O)c1cc(COc2nnc(Nc3ccc(Cl)cc3)c3ccoc23)ccn1 [telatinib]
PDGFR-β tyrosine kinase activity [1]: potent inhibitor | Best response NA (not assessable for response) ([2]; Total, N=71): 1 | Best response PD clin (RECIST) ([2]; Total, N=71): 9 | Best response PD meas (RECIST) ([2]; Total, N=71): 14 | Best response PR (RECIST) ([2]; Total, N=71): 2 | Best response SD (RECIST) ([2]; Total, N=71): 42 | Stabilisation (months) <6 ([2]; Total, N=71): 62 | Stabilisation (months) >6 ([2]; Total, N=71): 5 | Stabilisation (months) >12 ([2]; Total, N=71): 3 | Best response PD clin (RECIST) [2, 6]: 1 | Best response PD meas (RECIST) [2, 6]: 6 | Best response SD (RECIST) [2, 6]: 17 | Stabilisation (months) <6 [2, 6]: 23 | Stabilisation (months) >6 [2, 6]: 1 | Stabilisation (months) >12 [2, 6]: 1 | Best response PD clin (RECIST) ([2]; primary tumour site HCC, N=9): 4 | Best response SD (RECIST) ([2]; primary tumour site HCC, N=9): 5 | Stabilisation (months) <6 ([2]; primary tumour site HCC, N=9): 8 | Stabilisation (months) >6 ([2]; primary tumour site HCC, N=9): 1 | Best response PD meas (RECIST) ([2]; primary tumour site NSCLC, N=4): 1 | Best response SD (RECIST) ([2]; primary tumour site NSCLC, N=4): 3 | Stabilisation (months) <6 ([2]; primary tumour site NSCLC, N=4): 4 | Best response NA (not assessable for response) [2, 7]: 1 | Best response PD clin (RECIST) [2, 7]: 1 | Best response PD meas (RECIST) [2, 7]: 4 | Best response SD (RECIST) [2, 7]: 10 | Stabilisation (months) <6 [2, 7]: 13 | Stabilisation (months) >6 [2, 7]: 3 | Best response PD clin (RECIST) [2, 8]: 2 | Best response PD meas (RECIST) [2, 8]: 2 | Stabilisation (months) <6 [2, 8]: 4 | Best response PD clin (RECIST) ([2]; primary tumour site RCC, N=12): 1 | Best response PD meas (RECIST) ([2]; primary tumour site RCC, N=12): 1 | Best response SD (RECIST) ([2]; primary tumour site RCC, N=12): 7 | Stabilisation (months) <6 ([2]; primary tumour site RCC, N=12): 10 | Stabilisation (months) >12 ([2]; primary tumour site RCC, N=12): 2 | inhibitory and inductive potential on major human CYP isoforms [3]: neither an inhibitory nor an inductive potential | tumour growth in vivo [4]: potent, dose-dependent reduction in tumour growth | Patients with hypertension resulting in dose reduction and dose interruption ([5]; 300 mg BID, 1500 mg BID noncontinuous and 1200 mg BID continuous dosing): three | Patients with dose-limiting toxicities ([5]; 1500 mg BID continuous dosing, first 21 days of treatment): no patient out of six patients; also recorded: none of the six patients | Patients with dose-limiting toxicities ([5]; 1500 mg BID noncontinuous dosing, grade 3 hypertension refractory to standard treatment): one out of six patients | Incidence of patients with study drug-related adverse events, worst CTC grade 3: Abdominal pain or cramping ([5]; Total, all patients N=71): 2 (3) N(%) | Incidence of patients with study drug-related adverse events, worst CTC grade 3: Any event ([5]; Total, all patients N=71): 18 (25) N(%) | Incidence of patients with study drug-related adverse events, worst CTC grade 3: Dehydration ([5]; Total, all patients N=71): 1 (1) N(%) | Incidence of patients with study drug-related adverse events, worst CTC grade 3: Diarrhoea, patients with colostomy ([5]; Total, all patients N=71): 1 (1) N(%) | Incidence of patients with study drug-related adverse events, worst CTC grade 3: Diarrhoea, patients without colostomy ([5]; Total, all patients N=71): 4 (6) N(%) | Incidence of patients with study drug-related adverse events, worst CTC grade 3: Hand–foot skin reaction ([5]; Total, all patients N=71): 1 (1) N(%) | Incidence of patients with study drug-related adverse events, worst CTC grade 3: Hypertension ([5]; Total, all patients N=71): 16 (23) N(%) | Incidence of patients with study drug-related adverse events, worst CTC grade 3: Rash/desquamation ([5]; Total, all patients N=71): 1 (1) N(%) | Incidence of patients with study drug-related adverse events, worst CTC grades 1–2: Alopecia ([5]; Total, all patients N=71): 2 (3) N(%) | Incidence of patients with study drug-related adverse events, worst CTC grades 1–2: Anorexia ([5]; Total, all patients N=71): 5 (7) N(%) | Incidence of patients with study drug-related adverse events, worst CTC grades 1–2: Any event ([5]; Total, all patients N=71): 15 (21) N(%) | Incidence of patients with study drug-related adverse events, worst CTC grades 1–2: Diarrhoea, patients without colostomy ([5]; Total, all patients N=71): 4 (6) N(%) | Incidence of patients with study drug-related adverse events, worst CTC grades 1–2: Fatigue ([5]; Total, all patients N=71): 2 (3) N(%) | Incidence of patients with study drug-related adverse events, worst CTC grades 1–2: Flatulence ([5]; Total, all patients N=71): 2 (3) N(%) | Incidence of patients with study drug-related adverse events, worst CTC grades 1–2: Hypertension ([5]; Total, all patients N=71): 3 (4) N(%) | Incidence of patients with study drug-related adverse events, worst CTC grades 1–2: Nausea ([5]; Total, all patients N=71): 3 (4) N(%) | Incidence of patients with study drug-related adverse events, worst CTC grades 1–2: Voice changes/stridor/larynx ([5]; Total, all patients N=71): 5 (7) N(%) | Incidence of patients with study drug-related adverse events, worst CTC grades 1–2: Vomiting ([5]; Total, all patients N=71): 2 (3) N(%) | Patients dose reduced or discontinued permanently due to drug-related adverse events ([5]; all patients): nine out of 71 | Hypertension, study drug-related, CTC grade 3 ([5]; all patients N=71): 23% | Hypertension, study drug-related, worst CTC grade 1–2 ([5]; all patients N=71): 4%
